# Test results from patent US6379670B1, “Methods for treatment of multiple sclerosis using peptide analogs of human myelin basic protein” (Neurocrine Biosciences, Inc., priority 1994, dated 2002).
# Non-standard residues stand in square brackets, D forms with d. No end group written: not given here.
# B1: IFN-γ: cytokine administered in a pilot study in MS patients (protein, UniProt P01579 24-161, looked up)
# Interferon gamma: QDPYVKEAENLKKYFNAGHSDVADNGTLFLGILKNWKEESDRKIMQSQIVSFYFKLFKNFKDDQSIQKSVETIKEDMNVKFFNSNKKKRDDFEKLTNYSVTDLNVQRKAIHELIQVMAELSPAAKTGKRKRSQMLFRG
# Key:
# [1] = test system: EAE in Lewis rats; experiment: Treatment of MBP(83-99)-induced EAE in Lewis rats with peptide analogs (subcutaneous); assay type: in vivo, Lewis rat; details: 13.2 mg/kg subcutaneously on day 9, FIGS. 10 and 11
# Method: In this system, experimental allergic encephalomyelitis (EAE) was induced in twelve female Lewis rats by injection of MBP(83-99) peptide in complete Freund's adjuvant (CFA) at the base of the tail. Nine days later, rats were divided into two groups of six animals and subcutaneously injected with 13.2 mg/kg of either peptide analog or a control peptide, sperm whale myoglobin (SWM) (110-121). Animals were monitored daily for disease symptoms and scored in a blinded fashion on a nonlinear ascending scale of 0-4 with increments denoting increasing paralysis. Each individual score was averaged with group cohorts to obtain the mean clinical score.
# [2] = test system: Dr2b restricted human T cell clones reactive to MBP; experiment: Human T cell proliferation, Dr2b restricted clones; assay type: cell-based; details: Dr2b restricted clone 5F6, 50 μM, FIG. 19
# Method: (§1) Human T cells reactive to MBP (83-99) may alternatively be used to measure the ability of the peptide analog to inhibit proliferation of T cells induced by native MBP (83-99) peptide. MBP-specific T cells may be obtained as previously described by Martin et al., J. Immunol. 148:1359-1366, 1992. Briefly, T cell lines are established by culture of human T cells with irradiated, DR-matched peripheral blood cells in MEM supplemented with 2 mM L-glutamine, 50 μg/ml gentamicin, penicillin and streptomycin, 100 U/ml rIL-2, and 10% human AB negative serum. Proliferation of these T cell lines is stimulated by culturing a clone with varying concentration (1.1-30 μM) of native […] peptide, 50 μM of the peptide analog or SWM peptide, in the presence of irradiated, DR matched peripheral blood cells, following incubation for approximately 60 hours, the cells are pulsed with ^3H-thymidine for 12 hours and harvested. The amount of incorporated ^3H-thymidine is measured.
# The ability of the peptide analogs NBI-5719, 5748, 5765, 5788 and 5789 (SEQ ID NOs: 4-8 respectively) to affect human T cell proliferation was assessed. A constant amount of peptide analog or the control peptide SWM (50 μM) was cultured with varying concentrations of native MBP(83-99) peptide (1.1-30 μM) in the presence of irradiated, DR matched peripheral blood cells and T cell clones derived from various MS patients. Human T cells (1×10^6) were cultured with DR matched, irradiated peripheral blood cells (PBL, 5×10^6) in medium containing IMDM supplemented with 3 μM MBP83-99, 2 mM L-glutamine, 50 μg/ml gentamicin penicillin/streptomycin, 100 U/ml r1L-2 and 10% human AB-negative serum. Cells were cultured for approximately 60 hours, pulsed with tritiated thymidine for 12 hours, and harvested. The amount of tritiated thymidine incorporated was measured, and the data represented as the mean plus or minus the standard error of the mean of replicate samples.
# The ability of the peptide analog to inhibit the proliferative response of MBP-reactive T cells isolated from Dr2b (DrB1* 1501) individuals was determined. A constant amount of NBI-5788 (50 μM) was cultured with varying concentrations of native peptide (1.1-30 μM) in the presence of irradiated, DR matched peripheral blood cells and T cell clones derived from various MS patients.
# [3] = test system: EAE in SJL/J mice; experiment: Inhibition of chronic relapsing EAE in SJL/J mice; assay type: in vivo, mouse; details: 20 mg/kg intraperitoneally weekly for 4 weeks
# Method: The SJL/J (H-2^5) mouse develops a chronic relapsing form of EAE in response to immunization with MBP(83-99) peptide in the presence of pertussis vaccine. The ability of the peptide analogs NBI-5719 (SEQ ID NO:4) and NBI-5765 (SEQ ID NO:6) to inhibit the disease was evaluated (see FIG. 12).
# Groups of 10 animals were injected intraperitoneally weekly for 4 weeks with 20 mg/kg of either a control peptide or the peptide analog. The animals were then monitored for disease over the next 2-3 months. […] Beginning around day 70, a relapse occurred reaching a mean clinical score of about 1. […] This is particularly striking since the animals had not been exposed to the APL for approximately one month.
# [4] = test system: Dr4 Dw4 restricted human T cell clone MS-1; experiment: Human T cell proliferation, Dr4 Dw4 restricted clone MS-1; assay type: cell-based; details: FIG. 20
# Method: as §1
# The ability of the peptide analogs NBI-5719, 5748, 5765, 5788 and 5789 (SEQ ID NOs: 4-8 respectively) to affect human T cell proliferation was assessed. […] The amount of tritiated thymidine incorporated was measured, and the data represented as the mean plus or minus the standard error of the mean of replicate samples.
# [5] = test system: Dr2b-restricted T cell clone 5F6; experiment: Cytokine production (TNF-α, IFN-γ) by T cell clone 5F6, EIA; assay type: cell-based, human; details: even at concentrations of 50 μM (data not shown)
# Method: As discussed in detail below, the production of cytokines may also be assessed. In particular, TNF-α and IFN-γ production are especially interesting. These pro-inflammatory cytokines are thought to play a role in the pathogenesis of the disease. Briefly, T cell clone is incubated in the presence of stimulating MBP peptide and peptide analog or control peptide (SWM) or medium only. After a 24 hour incubation, the levels of TNF-α and IFN-γ in the supernatant are determined using commercially available EIA kits (Endogen, Cambridge, Mass.).
# The ability of the peptide analog ligand to influence cytokine production was next measured. The Dr2b-restricted T cell clone 5F6 was incubated in the presence of 3 μM MBP peptide with either 10 μM of NBI-5788 (SEQ ID NO:7) or SWM or medium only. As a control, cells were cultured in the presence of medium alone. After 24 hours, supernatants were removed and the levels of tumor necrosis factor alpha (TNF-α) and interferon-y (IFN-γ) determined using commercially available EIA kits.
# [6] = test system: rat MHC class II I-A or I-E on splenic adherent cells; experiment: MHC binding assay (competition with biotin-labeled MBP peptide, flow cytometry); set-up: species or system Lewis rat; details: at 100 μM
# Method: Binding of peptides to MHC molecules may be assayed on whole cells. Briefly, Lewis rat spleen cells are cultured for 3 hours to allow adherent cells to stick to polystyrene petri dishes. Non-adherent cells are removed. Adherent cells, which contain cells expressing MHC class II molecules, are collected by scraping the dishes. The binding of peptide analogs to cells is measured by a fluorescence assay. In this assay, splenic adherent cells are mixed with different concentrations of peptide analogs and incubated for 1 hour at 37° in a CO2 incubator. Following incubation, biotinlabeled MBP (87-99) is added to the culture wells. The cells are incubated for another hour and then washed three times in medium. […] Fluorescence intensity is calculated by subtracting the fluorescence value obtained from cells stained with phycoerythrin-streptavidin alone (control staining) from the fluorescence value obtained from biotin-labeled MBP native peptide plus phycoerythrin-streptavidin (experimental staining). […] Percent inhibition is calculated for each analog and expressed as IC50 values.
# The ability of MBP peptides and peptide analogs to bind MHC was measured. […] The binding of MBP (87-99) analogs was measured using a fluorescence assay. […] Percent inhibition was calculated for each analog and expressed as IC50 values.
# [7] = test system: MS patients; details: human, in vivo; cited from earlier work
molecule,measurement,setting,value
"NBI-5765: peptide analog of MBP (83-99), SEQ ID NO:6, sequence in FIG. 8 ([dA]NPVVHAFANIVTPRTP)",effect on EAE disease severity versus control peptide,[1],significantly reduced the magnitude of the disease
same,inhibition of MBP-dependent proliferation of clone 5F6,[2],inhibited the MBP-dependent proliferation in a concentration dependent fashion
same,effect on first phase of EAE,[3]; FIG. 12,reduced the level of the disease in the first phase
same,effect on relapse of EAE,[3]; relapse around day 70,reduced the severity of the relapse
same,inhibition of MBP-dependent proliferation of clone MS-1,[4],inhibited the MBP-dependent proliferation in a concentration dependent fashion
same,stimulation of cytokine production over background by the analog itself,[5],None
"NBI-5789: peptide analog of MBP (83-99), SEQ ID NO:8, sequence in FIG. 8 ([dA]KPVVHAFANIVTPRTP)",inhibition of MBP-dependent proliferation of clone 5F6,[2],inhibited the MBP-dependent proliferation in a concentration dependent fashion
same,stimulation of cytokine production over background by the analog itself,[5],None
"a83, A89, A91: analog with residue 83 altered to D-alanine, residue 89 to alanine, and residue 91 to alanine",inhibition of binding of biotin-labeled MBP peptide to MHC,[6],25%
B1,patients with a clinical exacerbation within one month after initiation of treatment,[7],7 of 18
